According to patent publication EP4559911A1, “NOVEL HETEROCYCLIC COMPOUND AND PHARMACEUTICAL COMPOSITION FOR INHIBITING AUTOTAXIN COMPRISING THE SAME” (Nextgen Bioscience Co., Ltd., priority 2022, dated 2024):

The compounds below were run against human Autotaxin protein (Homo sapiens, UniProt Q13822) (assay: Evaluation of the inhibitory activity against human Autotaxin protein (18:1 LysoPC substrate, choline assay kit, absorbance at 570 nm)). Details: compound at 500nM; 2 hours at 37 °C; % inhibition = (1 - absorbance test group / absorbance control group) X 100.
Format: biochemical
Protocol: Solutions of each compound synthesized (80 uM, 100% dimethyl sulfoxide) were sequentially diluted 5-fold with dimethyl sulfoxide to prepare 6 concentrations. Each concentration of the compound was diluted 2-fold with 1x test buffer (50 mM Tris-Cl (pH 8.0), 5 mM KCl, 1 mM CaCl2, 1 mM MgCl2, 140 mM NaCl, deionized water, 1 mg/mL BSA), and 1 uL (1.25% dimethyl sulfoxide) of this diluted mixture was dispensed into each well of a 96-well clear round-bottom plate. 9 uL of 1x test buffer was added, and 20 uL of 240 nM human autotaxin protein (buffer: 50 mM Tris-HCl, pH 8.0, with 150 mM sodium chloride and 20% glycerol) was added. 10 uL of sonicated 360 uM 18:1 LysoPC (diluted with 1x assay buffer) was added. The reaction was performed for 2 hours in a shaking incubator at 37 °C, and a secondary reaction mixture (choline assay kit, KA1662) (65 uL of 1x assay buffer: 1 uL of choline oxidase: 1 uL of dye probe) was prepared. 60 uL of the secondary reaction mixture was added to the plate where the reaction was performed, and incubated for 30 minutes in a shaker. The absorbance value was measured at a wavelength of 570 nm using a SpectraMax iD3 microplate reader. The percentage inhibition activity value (% inhibition) was calculated by the formula: (1 - absorbance value test group / absorbance value control group) X 100.

| SMILES | inhibition at 0.5 µM [%] |
| --- | --- |
| CC(C)(C)C(=O)OCn1cc(C2CCN(c3nnc(-c4cnc(NC5Cc6cc(F)c(F)cc6C5)nc4)o3)C2)nn1 (stereo not drawn) [Example 2, (4-(1-(5-(2-((5,6-difluoro-2,3-dihydro-1H-inden-2-yl)amino)pyrimidin-5-yl)-1,3,4-oxadiazol-2-yl)pyrrolidin-3-yl)-1H-1,2,3-triazol-1-yl)methyl pivalate] | 3 |
| CC(C)(C)C(=O)OCn1cc(C2CCN(c3nnc(-c4cnc(NC5Cc6cccnc6C5)nc4)o3)C2)nn1 (stereo not drawn) [Example 4, (4-(1-(5-(2-((6,7-dihydro-5H-cyclopenta[b]pyridin-6-yl)amino)pyrimidin-5-yl)-1,3,4-oxadiazol-2-yl)pyrrolidin-3-yl)-1H-1,2,3-triazol-1-yl)methyl pivalate] | 1 |
| O=C(/C=C/c1cnc(NC2Cc3cc(F)c(F)cc3C2)nc1)N1CCC(c2c[nH]nn2)C1 (stereo not drawn) [Example 9, (E)-1-(3-(1H-1,2,3-triazol-4-yl)pyrrolidin-1-yl)-3-(2-((5,6-difluoro-2,3-dihydro-1H-inden-2-yl)amino)pyrimidin-5-yl)prop-2-en-1-one] | 94.2 |
| O=C(CCc1cnc(NC2Cc3cc(F)c(F)cc3C2)nc1)N1CCC(c2c[nH]nn2)C1 (stereo not drawn) [Example 10, 1-(3-(1H-1,2,3-triazol-4-yl)pyrrolidin-1-yl)-3-(2-((5,6-difluoro-2,3-dihydro-1H-inden-2-yl)amino)pyrimidin-5-yl)propan-1-one] | 18.6 |
| COc1ccc2c(c1)CC(Nc1ncc(-c3nnc(N4CCC(c5cn(COC(=O)C(C)(C)C)nn5)C4)o3)cn1)C2 (stereo not drawn) [Example 12, (4-(1-(5-(2-((5-methoxy-2,3-dihydro-1H-inden-2-yl)amino)pyrimidin-5-yl)-1,3,4-oxadiazol-2-yl)pyrrolidin-3-yl)-1H-1,2,3-triazol-1-yl)methyl pivalate] | 4.1 |
| COC(=O)C1CCN(c2nnc(-c3cnc(NC4Cc5cc(F)c(F)cc5C4)nc3)o2)C1 (stereo not drawn) [Example 15, methyl 1-(5-(2-((5,6-difluoro-2,3-dihydro-1H-inden-2-yl)amino)pyrimidin-5-yl)-1,3,4-oxadiazol-2-yl)pyrrolidine-3-carboxylate] | 9.5 |
| Fc1cc2c(cc1F)CC(Nc1ncc(C3CC(N4CCC(c5c[nH]nn5)C4)=NO3)cn1)C2 (stereo not drawn) [Example 17, 5-(3-(3-(1H-1,2,3-triazol-4-yl)pyrrolidin-1-yl)-4,5-dihydroisoxazol-5-yl)-N-(5,6-difluoro-2,3-dihydro-1H-inden-2-yl)pyrimidin-2-amine] | 39.5 |
| Fc1cc2c(cc1F)CC(Nc1ncc(-c3cc(N4CCC(c5c[nH]nn5)C4)no3)cn1)C2 (stereo not drawn) [Example 18, 5-(3-(3-(1H-1,2,3-triazol-4-yl)pyrrolidin-1-yl)isoxazol-5-yl)-N-(5,6-difluoro-2,3-dihydro-1H-inden-2-yl)pyrimidin-2-amine] | 95.3 |
| O=C(/C=C/c1cnc(NC2Cc3ccccc3C2)nc1)N1CCC(c2c[nH]nn2)C1 (stereo not drawn) [Example 20, (E)-1-(3-(1H-1,2,3-triazol-4-yl)pyrrolidin-1-yl)-3-(2-((2,3-dihydro-1H-inden-2-yl)amino)pyrimidin-5-yl)prop-2-en-1-one] | 92.4 |
| O=C(O)C1CCN(c2nnc(-c3cnc(NC4Cc5cc(F)c(F)cc5C4)nc3)o2)C1 (stereo not drawn) [Example 22, 1-(5-(2-((5,6-difluoro-2,3-dihydro-1H-inden-2-yl)amino)pyrimidin-5-yl)-1,3,4-oxadiazol-2-yl)pyrrolidine-3-carboxylic acid] | 3.6 |
| O=c1[nH]nc(C2CCN(c3nnc(-c4cnc(NC5Cc6cc(F)c(F)cc6C5)nc4)o3)C2)o1 (stereo not drawn) [Example 23, 5-(1-(5-(2-((5,6-difluoro-2,3-dihydro-1H-inden-2-yl)amino)pyrimidin-5-yl)-1,3,4-oxadiazol-2-yl)pyrrolidin-3-yl)-1,3,4-oxadiazol-2(3H)-one] | 91.6 |
| COC(=O)CC1CCN(c2nnc(-c3cnc(NC4Cc5cc(F)c(F)cc5C4)nc3)o2)C1 (stereo not drawn) [Example 24, methyl 2-(1-(5-(2-((5,6-difluoro-2,3-dihydro-1H-inden-2-yl)amino)pyrimidin-5-yl)-1,3,4-oxadiazol-2-yl)pyrrolidin-3-yl)acetate] | 1 |
| O=C(O)CC1CCN(c2nnc(-c3cnc(NC4Cc5cc(F)c(F)cc5C4)nc3)o2)C1 (stereo not drawn) [Example 25, 2-(1-(5-(2-((5,6-difluoro-2,3-dihydro-1H-inden-2-yl)amino)pyrimidin-5-yl)-1,3,4-oxadiazol-2-yl)pyrrolidin-3-yl)acetic acid] | 1.8 |
| OC1CCN(c2nnc(-c3cnc(NC4Cc5cc(F)c(F)cc5C4)nc3)o2)C1 (stereo not drawn) [Example 26, 1-(5-(2-((5,6-difluoro-2,3-dihydro-1H-inden-2-yl)amino)pyrimidin-5-yl)-1,3,4-oxadiazol-2-yl)pyrrolidin-3-ol] | 1 |
| CS(=O)(=O)OC1CCN(c2nnc(-c3cnc(NC4Cc5cc(F)c(F)cc5C4)nc3)o2)C1 (stereo not drawn) [Example 27, 1-(5-(2-((5,6-difluoro-2,3-dihydro-1H-inden-2-yl)amino)pyrimidin-5-yl)-1,3,4-oxadiazol-2-yl)pyrrolidin-3-yl methanesulfonate] | 12.1 |

Continued, values first:

| inhibition at 0.5 µM [%] | SMILES |
| --- | --- |
| 98 | c1ccc2c(c1)CC(Nc1ncc(-c3nnc(N4CCC(c5c[nH]nn5)C4)o3)cn1)C2 (stereo not drawn) [Example 1, 5-(5-(3-(1H-1,2,3-triazol-4-yl)pyrrolidin-1-yl)-1,3,4-oxadiazol-2-yl)-N-(2,3-dihydro-1H-inden-2-yl)pyrimidin-2-amine] |
| 100 | Fc1cc2c(cc1F)CC(Nc1ncc(-c3nnc(N4CCC(c5c[nH]nn5)C4)o3)cn1)C2 (stereo not drawn) [Example 3, 5-(5-(3-(1H-1,2,3-triazol-4-yl)pyrrolidin-1-yl)-1,3,4-oxadiazol-2-yl)-N-(5,6-difluoro-2,3-dihydro-1H-inden-2-yl)pyrimidin-2-amine] |
| 7.6 | CC(C)(C)C(=O)OCn1cc(C2CCN(c3nnc(-c4cnc(NCc5ccc6c(c5)OCO6)nc4)o3)C2)nn1 (stereo not drawn) [Example 5, (4-(1-(5-(2-((benzo[d][1,3]dioxol-5-ylmethyl)amino)pyrimidin-5-yl)-1,3,4-oxadiazol-2-yl)pyrrolidin-3-yl)-1H-1,2,3-triazol-1-yl)methyl pivalate] |
| 30.4 | c1cc2c(cc1CNc1ncc(-c3nnc(N4CCC(c5c[nH]nn5)C4)o3)cn1)OCO2 (stereo not drawn) [Example 6, 5-(5-(3-(1H-1,2,3-triazol-4-yl)pyrrolidin-1-yl)-1,3,4-oxadiazol-2-yl)-N-(benzo[d][1,3]dioxol-5-ylmethyl)pyrimidin-2-amine] |
| 17 | c1cnc2c(n1)CC(Nc1ncc(-c3nnc(N4CCC(c5c[nH]nn5)C4)o3)cn1)C2 (stereo not drawn) [Example 7, N-(5-(5-(3-(1H-1,2,3-triazol-4-yl)pyrrolidin-1-yl)-1,3,4-oxadiazol-2-yl)pyrimidin-2-yl)-6,7-dihydro-5H-cyclopenta[b]pyrazin-6-amine] |
| 49.5 | c1cnc2c(c1)CC(Nc1ncc(-c3nnc(N4CCC(c5c[nH]nn5)C4)o3)cn1)C2 (stereo not drawn) [Example 8, N-(5-(5-(3-(1H-1,2,3-triazol-4-yl)pyrrolidin-1-yl)-1,3,4-oxadiazol-2-yl)pyrimidin-2-yl)-6,7-dihydro-5H-cyclopenta[b]pyridin-6-amine] |
| 41.6 | Clc1cc(Cl)cc(CCNc2ncc(-c3nnc(N4CCC(c5c[nH]nn5)C4)o3)cn2)c1 (stereo not drawn) [Example 11, 5-(5-(3-(1H-1,2,3-triazol-4-yl)pyrrolidin-1-yl)-1,3,4-oxadiazol-2-yl)-N-(3,5-dichlorophenethyl)pyrimidin-2-amine] |
| 96.8 | COc1ccc2c(c1)CC(Nc1ncc(-c3nnc(N4CCC(c5c[nH]nn5)C4)o3)cn1)C2 (stereo not drawn) [Example 13, 5-(5-(3-(1H-1,2,3-triazol-4-yl)pyrrolidin-1-yl)-1,3,4-oxadiazol-2-yl)-N-(5-methoxy-2,3-dihydro-1H-inden-2-yl)pyrimidin-2-amine] |
| 23.3 | Fc1cc2c(cc1F)CC(Nc1cnc(-c3nnc(N4CCC(c5c[nH]nn5)C4)o3)cn1)C2 (stereo not drawn) [Example 14, 5-(5-(3-(1H-1,2,3-triazol-4-yl)pyrrolidin-1-yl)-1,3,4-oxadiazol-2-yl)-N-(5,6-difluoro-2,3-dihydro-1H-inden-2-yl)pyrazin-2-amine] |
| 88.1 | Cc1nc(NC2Cc3cc(F)c(F)cc3C2)ncc1-c1nnc(N2CCC(c3c[nH]nn3)C2)o1 (stereo not drawn) [Example 16, 5-(5-(3-(1H-1,2,3-triazol-4-yl)pyrrolidin-1-yl)-1,3,4-oxadiazol-2-yl)-N-(5,6-difluoro-2,3-dihydro-1H-inden-2-yl)-4-methylpyrimidin-2-amine] |
| 99.7 | Brc1ccc2c(c1)CC(Nc1ncc(-c3nnc(N4CCC(c5c[nH]nn5)C4)o3)cn1)C2 (stereo not drawn) [Example 19, 5-(5-(3-(1H-1,2,3-triazol-4-yl)pyrrolidin-1-yl)-1,3,4-oxadiazol-2-yl)-N-(5-bromo-2,3-dihydro-1H-inden-2-yl)pyrimidin-2-amine] |
| 72.5 | Fc1cc(F)cc(CNc2ncc(-c3nnc(N4CCC(c5c[nH]nn5)C4)o3)cn2)c1 (stereo not drawn) [Example 21, 5-(5-(3-(1H-1,2,3-triazol-4-yl)pyrrolidin-1-yl)-1,3,4-oxadiazol-2-yl)-N-(3,5-difluorobenzyl)pyrimidin-2-amine] |
